What was measured:
EL-4 tumour cells = test: LDH cytotoxicity assay, OT-I CD8+ CTLs co-cultured with Ova peptide-pulsed EL-4 target cells; type: cell-based, murine; conditions: 10 μM, over a range of effector-to-target ratios, vs carrier control
Protocol: FIG. 1. L-type Cav channel agonists increase Gli1 expression and enhance specific cell killing by murine CD8+ CTLs. CD8^+ T cells were isolated from the spleen and inguinal lymph nodes of Rag2^−/− OT-I mice, and CTLs were generated. (A) Cells were restimulated on day 9/10 for 3 hours using plate-bound anti-CD3ε in the presence of indicated concentrations of FPL 64176 or carrier control. RNA was extracted and Gli1 expression was assessed by qRT-PCR. Data is n=3 independent experiments. us=unstimulated cells. (B) An LDH cytotoxicity assay was performed using OT-I CTLs. On day 7, CTLs were co-cultured with Ova peptide-pulsed EL-4 cells in the presence of 10 μM FPL 64176 (squares) or carrier control (circles). Data is n=4 independent experiments. (C) Updated experiment of (A). Data is now n=4 independent experiments. Data is normalised to Tbp as a reference gene. 0h=unstimulated cells. (D) Same data as (B) represented differently. […] Error bars indicate SD. p values were calculated using an unpaired two-tailed Student's t test (C) or a two-way ANOVA (B/D). * indicates p<0.05, ** indicates p<0.01, **** indicates p<0.0001.
FIG. 11. […] (A) Quantitative analysis of live cell numbers. […] (E) Quantitative analysis of live cell numbers. […]
(§1) To ensure that the use of L-type Cav agonist is not adversely affecting immune cells, general cell functions were assessed. […]

CD8+ T cells = test: Flow cytometric analysis of viability, proliferation and memory subsets of CD8+ T cells; type: cell-based; conditions: 10 μM, 24 h
Protocol: FIG. 11. […] Naïve CD8+ T cells were stimulated with plate-bound anti-CD3/CD28 antibodies for 24 h in the presence of 10 μM FPL64176 or carrier control before flow cytometric analysis (FIG. 11A-D). (A) Quantitative analysis of live cell numbers. (B) Percentage of cells positive for the apoptotic marker Apotracker™ Green. (C) Percentage of cells positive for cell viability dye DAPI. (D) Analysis of T cell subsets based on the expression of CD44 and CD62L: CD44− CD62L+ (naïve), CD44+ CD62L+ (central memory), and CD44+ CD62L− (effector memory). (FIG. 11E-G) CTLs were restimulated on day 10 with plate-bound anti-CD3 antibody for 24 h in the presence of 10 μM FPL64176 or carrier control before flow cytometric analysis. (E) Quantitative analysis of live cell numbers. (F) Percentage of cells positive for the apoptotic marker Apotracker™ Green. (G) Percentage of cells positive for the cell viability dye DAPI. […]
as §1

MC38-Ova tumour = test: Adoptive transfer of agonist-treated OTI T cells into MC38-Ova tumour bearing Rag2 KO mice, Cleaved Caspase 3 immunohistochemistry; type: in vivo; conditions: T cells re-stimulated in vitro with agonist before transfer; tumours excised 24 hours after transfer
Protocol: FIG. 13. […] Cytotoxic OTI T cells were re-stimulated in vitro in the presence of FPL 64176 or carrier control before adoptive transfer into MC38-Ova tumour bearing Rag2 KO mice via tail vein injection. 24 hours after the adoptive transfer, tumours were excised and analysed by immunohistochemistry for Cleaved Caspase 3 (A). 3 mice per condition, % CC3 over whole tumour area from all mice. (B) Repeat experiment with 3-4 mice per condition. Each data point represents the average CC3 staining of 3 separate tumour sections. Overall CC3 staining (top panel) and weak, moderate, and strong CC3 staining (bottom row), respectively, are shown.
As described above, the present invention may find use in adoptive transfer. To investigate the applicability of Cav channel agonist treatment in an adoptive transfer treatment regime, cytotoxic OTI T cells were re-stimulated in vitro in the presence of FPL 64176 or carrier control before adoptive transfer into MC38-Ova tumour bearing Rag2 KO mice via tail vein injection. 24 hours after the adoptive transfer, tumours were excised and analysed by immunohistochemistry for Cleaved Caspase 3. FIGS. 13A&B indicate that treatment of tumour-specific T cells with a Cav channel agonist prior to adoptive transfer leads to increased tumour cell killing compared to adoptive transfer with T cells that have not been treated with a Cav channel agonist.

`COC(=O)c1c(C)[nH]c(C)c1C(=O)c1ccccc1Cc1ccccc1` [FPL 64176] was tested, and the “improvement of specific cell killing of EL-4 tumour cells” value (EL-4 tumour cells) was “at least 100%”, the “memory phenotypes (CD44/CD62L subsets)” value (CD8+ T cells; naïve CD8+ T cells stimulated with anti-CD3/CD28) was “does not affect” and the “viability or proliferation of naïve and cytotoxic CD8+ T cells” value (CD8+ T cells; live cell numbers, Apotracker Green, DAPI) was “does not impair”. The “tumour cell death in vivo (Cleaved Caspase 3 staining)” value (MC38-Ova tumour) was “increased tumour cell death”.
